Experimental data from paper PMC9065200, “Engineering of donor-acceptor-donor curcumin analogues as near-infrared fluorescent probes for in vivo imaging of amyloid-β species” (Theranostics, 2022).

Columns and labels:
Aβ42 monomers = target: T1, Aβ42 monomers (Homo sapiens, UniProt P05067); experiment: fluorescence titration, one-site binding regression; details: read-out: Aβ monomers / Kd
T1 construct: gene APP; commercial Abeta(1-42) peptide (Nanjing Peptide Biotech), cut from APP precursor; monomer stock in hexafluoroisopropanol
T1 sequence (P05067 672-713): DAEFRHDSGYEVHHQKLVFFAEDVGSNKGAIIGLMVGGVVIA
Description: fluorescence titration, one-site binding regression on Aβ42 monomers

Aβ42 oligomers = target: T2, Aβ42 oligomers (Homo sapiens, UniProt P05067); experiment: as above; details: read-out: Aβ oligomers / Kd
T2 construct: gene APP; commercial Abeta(1-42) peptide, cut from APP precursor; soluble oligomers prepared via HFIP/water, stirred 24-48 h at ~22 °C, confirmed by TEM
T2 sequence (P05067 672-713): as above
Description: fluorescence titration, one-site binding regression on Aβ42 oligomers

Kd (Aβ42 monomers): 0.0642 ± 0.00538 µM
Kd (Aβ42 oligomers): 0.167 ± 0.0199 µM
SMILES: CN(C)c1ccc2cc(/C=C/C3=CC(/C=C/C=C4N(C)c5ccccc5C4(C)C)=[O+][B-](F)(F)O3)ccc2c1 [compound 7, probe 7]
